pIC50: −log10 of the molar value. Where two headings read alike, the source gives them in different places.
Assays:
Format in all cases: cell-based
Human Cav 2.2 channels = Human Cav 2.2 channels (Homo sapiens, UniProt Q00975); assay: Fluorescent assay for CaV2.2 channels using potassium depolarization (VIPR/FLIPR); conditions: FLIPR data; for CAv2.2 IC50 Ratio closed/inact.: ratio closed/inactivated IC50
Method in brief: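 Fluo-4 calcium fluorescence (480/535 nm) was recorded on VIPR or FLIPR after depolarization to 70 mM final potassium. Before this, cells were preincubated 30 min at 25 °C with compound in 4–30 mM potassium, so that state-dependent block could be assessed; the cells were HEK293 coexpressing Cav2.2, α2δ, β and Kir2.3.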

CAv1.2 = CAv1.2 (Homo sapiens, UniProt Q13936); assay: FLIPR data, CAv1.2 channel blocking (Table 6); conditions: for CAv1.2 IC50 Ratio closed/inact.: ratio closed/inactivated IC50
T-type calcium channel [1] = biological target: T-type calcium channel (Homo sapiens, UniProt O95180); assay: T-type channel blocking, FLIPR data (Table 6); conditions: for CAv3.2 IC50 Ratio closed/inact.: CAv3.2, ratio closed/inactivated IC50
Chain of T-type calcium channel (Homo sapiens, UniProt O95180) (O95180 whole entry): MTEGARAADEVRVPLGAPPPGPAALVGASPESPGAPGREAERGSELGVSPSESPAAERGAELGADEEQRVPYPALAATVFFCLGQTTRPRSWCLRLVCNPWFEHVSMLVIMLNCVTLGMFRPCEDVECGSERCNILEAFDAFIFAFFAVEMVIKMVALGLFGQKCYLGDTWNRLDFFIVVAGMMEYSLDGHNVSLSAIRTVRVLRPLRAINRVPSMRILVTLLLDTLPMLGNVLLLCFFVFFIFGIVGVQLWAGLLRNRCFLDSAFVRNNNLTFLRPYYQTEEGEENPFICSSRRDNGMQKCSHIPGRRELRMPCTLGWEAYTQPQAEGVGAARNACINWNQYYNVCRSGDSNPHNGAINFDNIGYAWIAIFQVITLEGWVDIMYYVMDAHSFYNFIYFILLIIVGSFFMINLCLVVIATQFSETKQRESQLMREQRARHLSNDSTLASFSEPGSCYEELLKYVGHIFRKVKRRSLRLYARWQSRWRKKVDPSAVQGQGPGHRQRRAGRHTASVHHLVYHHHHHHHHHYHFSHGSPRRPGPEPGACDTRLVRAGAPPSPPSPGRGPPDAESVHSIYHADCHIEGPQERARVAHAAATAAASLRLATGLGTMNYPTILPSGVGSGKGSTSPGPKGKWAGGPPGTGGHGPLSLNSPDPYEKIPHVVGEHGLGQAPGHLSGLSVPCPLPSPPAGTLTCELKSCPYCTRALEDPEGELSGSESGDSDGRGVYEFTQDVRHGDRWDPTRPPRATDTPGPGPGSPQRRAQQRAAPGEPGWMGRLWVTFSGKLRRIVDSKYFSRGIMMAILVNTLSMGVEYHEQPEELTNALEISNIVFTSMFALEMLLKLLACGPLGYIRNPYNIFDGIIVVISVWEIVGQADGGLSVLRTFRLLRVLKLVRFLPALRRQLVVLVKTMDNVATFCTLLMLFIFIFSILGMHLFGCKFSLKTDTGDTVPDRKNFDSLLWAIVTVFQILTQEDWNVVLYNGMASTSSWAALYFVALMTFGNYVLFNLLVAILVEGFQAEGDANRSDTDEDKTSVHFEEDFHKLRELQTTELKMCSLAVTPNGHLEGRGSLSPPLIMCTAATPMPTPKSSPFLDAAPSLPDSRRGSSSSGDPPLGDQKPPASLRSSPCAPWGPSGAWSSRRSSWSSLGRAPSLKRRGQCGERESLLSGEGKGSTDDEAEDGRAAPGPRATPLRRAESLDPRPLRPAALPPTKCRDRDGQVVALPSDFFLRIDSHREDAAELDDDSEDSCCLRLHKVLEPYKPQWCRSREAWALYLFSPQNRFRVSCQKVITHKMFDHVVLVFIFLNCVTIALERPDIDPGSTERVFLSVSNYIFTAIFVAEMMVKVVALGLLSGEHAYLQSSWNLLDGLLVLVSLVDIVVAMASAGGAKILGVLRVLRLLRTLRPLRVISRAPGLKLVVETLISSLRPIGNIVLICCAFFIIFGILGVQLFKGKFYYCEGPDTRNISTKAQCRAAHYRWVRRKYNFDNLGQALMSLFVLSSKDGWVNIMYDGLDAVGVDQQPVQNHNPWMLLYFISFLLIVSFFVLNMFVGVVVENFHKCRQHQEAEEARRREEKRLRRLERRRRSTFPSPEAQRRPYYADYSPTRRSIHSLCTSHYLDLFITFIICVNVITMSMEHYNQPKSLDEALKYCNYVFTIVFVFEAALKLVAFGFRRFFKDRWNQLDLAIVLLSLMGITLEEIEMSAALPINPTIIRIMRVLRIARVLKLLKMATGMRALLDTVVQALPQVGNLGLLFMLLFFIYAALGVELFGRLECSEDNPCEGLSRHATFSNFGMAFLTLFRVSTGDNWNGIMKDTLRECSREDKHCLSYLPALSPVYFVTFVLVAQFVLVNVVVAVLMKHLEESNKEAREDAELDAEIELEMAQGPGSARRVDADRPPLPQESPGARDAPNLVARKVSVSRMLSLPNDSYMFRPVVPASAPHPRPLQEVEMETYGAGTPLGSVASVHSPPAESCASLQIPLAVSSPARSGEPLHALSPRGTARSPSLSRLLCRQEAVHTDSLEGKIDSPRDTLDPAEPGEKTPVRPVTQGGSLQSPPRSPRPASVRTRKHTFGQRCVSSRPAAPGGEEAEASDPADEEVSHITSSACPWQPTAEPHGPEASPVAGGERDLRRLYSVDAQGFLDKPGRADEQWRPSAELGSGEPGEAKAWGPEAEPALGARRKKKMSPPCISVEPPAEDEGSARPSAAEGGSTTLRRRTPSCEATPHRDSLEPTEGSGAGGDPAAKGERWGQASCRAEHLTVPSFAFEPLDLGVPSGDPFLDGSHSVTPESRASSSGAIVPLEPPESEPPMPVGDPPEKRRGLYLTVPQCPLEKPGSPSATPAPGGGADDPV
Source text: (§1) Another method, high-throughput spectrophotometric assay, utilizes loading of the cell lines with a fluorescent dye sensitive to intracellular calcium concentration and subsequent examination of the effects of compounds on the ability of depolarization by potassium chloride or other means to alter intracellular calcium levels.

T-type calcium channel [2] = biological target: T-type calcium channel (Homo sapiens, UniProt O43497); assay: T-type channel blocking, FLIPR data (Table 6); conditions: CAv3.1
Chain of T-type calcium channel (Homo sapiens, UniProt O43497) (O43497 whole entry): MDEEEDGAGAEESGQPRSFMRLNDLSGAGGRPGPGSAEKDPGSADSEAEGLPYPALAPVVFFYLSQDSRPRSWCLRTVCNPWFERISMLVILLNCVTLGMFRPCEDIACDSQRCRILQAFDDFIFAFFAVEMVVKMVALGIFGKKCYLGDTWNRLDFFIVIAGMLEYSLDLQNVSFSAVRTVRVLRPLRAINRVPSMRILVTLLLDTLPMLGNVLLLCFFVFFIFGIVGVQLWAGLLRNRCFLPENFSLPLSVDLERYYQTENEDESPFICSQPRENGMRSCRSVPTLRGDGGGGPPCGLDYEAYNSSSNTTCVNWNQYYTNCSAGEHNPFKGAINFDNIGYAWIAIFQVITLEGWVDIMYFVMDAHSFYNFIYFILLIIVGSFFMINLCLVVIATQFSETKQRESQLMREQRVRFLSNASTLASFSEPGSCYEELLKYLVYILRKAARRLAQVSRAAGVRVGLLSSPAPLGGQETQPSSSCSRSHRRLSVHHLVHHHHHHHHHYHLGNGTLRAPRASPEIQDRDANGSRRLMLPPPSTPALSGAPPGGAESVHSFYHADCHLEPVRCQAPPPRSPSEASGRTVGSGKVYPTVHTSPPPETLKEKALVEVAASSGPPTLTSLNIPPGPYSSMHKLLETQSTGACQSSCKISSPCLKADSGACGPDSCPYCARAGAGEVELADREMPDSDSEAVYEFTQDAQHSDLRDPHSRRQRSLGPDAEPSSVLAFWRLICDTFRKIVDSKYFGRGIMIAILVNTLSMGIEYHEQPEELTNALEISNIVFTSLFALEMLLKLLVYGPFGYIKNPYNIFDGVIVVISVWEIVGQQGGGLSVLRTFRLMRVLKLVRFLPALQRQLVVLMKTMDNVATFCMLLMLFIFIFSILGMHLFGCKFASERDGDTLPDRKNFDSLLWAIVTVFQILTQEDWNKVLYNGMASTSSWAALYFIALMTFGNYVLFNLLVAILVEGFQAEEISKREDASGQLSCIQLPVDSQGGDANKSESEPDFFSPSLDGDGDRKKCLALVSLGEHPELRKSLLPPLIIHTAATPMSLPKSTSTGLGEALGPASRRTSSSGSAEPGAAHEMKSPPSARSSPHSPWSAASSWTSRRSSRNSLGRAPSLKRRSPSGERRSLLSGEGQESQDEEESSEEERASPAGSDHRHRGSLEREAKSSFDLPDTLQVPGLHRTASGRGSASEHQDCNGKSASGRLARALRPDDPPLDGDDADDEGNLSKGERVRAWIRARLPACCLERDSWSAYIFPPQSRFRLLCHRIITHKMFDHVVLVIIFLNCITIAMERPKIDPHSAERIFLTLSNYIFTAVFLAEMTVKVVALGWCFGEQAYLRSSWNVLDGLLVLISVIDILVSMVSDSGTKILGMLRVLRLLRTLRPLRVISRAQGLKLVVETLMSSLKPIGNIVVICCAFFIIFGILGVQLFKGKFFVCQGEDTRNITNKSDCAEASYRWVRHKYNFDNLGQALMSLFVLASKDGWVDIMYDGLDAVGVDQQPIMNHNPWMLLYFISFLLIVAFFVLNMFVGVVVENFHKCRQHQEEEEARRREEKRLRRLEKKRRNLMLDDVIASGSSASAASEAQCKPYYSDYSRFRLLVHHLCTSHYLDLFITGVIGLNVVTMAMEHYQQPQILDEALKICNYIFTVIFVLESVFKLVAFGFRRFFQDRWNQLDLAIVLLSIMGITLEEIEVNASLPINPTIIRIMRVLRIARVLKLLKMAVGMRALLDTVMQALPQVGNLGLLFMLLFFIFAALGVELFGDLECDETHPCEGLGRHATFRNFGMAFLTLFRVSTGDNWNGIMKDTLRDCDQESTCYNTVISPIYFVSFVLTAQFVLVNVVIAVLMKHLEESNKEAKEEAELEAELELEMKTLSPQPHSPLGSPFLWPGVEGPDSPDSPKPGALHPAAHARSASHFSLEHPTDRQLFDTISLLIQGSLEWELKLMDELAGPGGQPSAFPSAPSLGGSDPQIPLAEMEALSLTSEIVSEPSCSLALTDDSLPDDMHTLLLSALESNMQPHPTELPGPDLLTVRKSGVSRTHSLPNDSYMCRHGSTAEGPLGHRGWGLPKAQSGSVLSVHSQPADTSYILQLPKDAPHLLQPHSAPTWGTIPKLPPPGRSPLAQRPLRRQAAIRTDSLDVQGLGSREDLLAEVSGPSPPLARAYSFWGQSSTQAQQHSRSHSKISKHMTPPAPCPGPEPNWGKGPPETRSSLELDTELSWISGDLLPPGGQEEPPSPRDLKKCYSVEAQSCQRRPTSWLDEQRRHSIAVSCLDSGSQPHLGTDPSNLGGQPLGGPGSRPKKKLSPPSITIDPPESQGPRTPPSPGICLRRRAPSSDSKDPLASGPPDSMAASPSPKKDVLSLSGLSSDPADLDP
Source text: as §1

[3] = closed state, read-out: CAv2.2 IC50 Closed
[4] = inactivated state, read-out: CAv2.2 IC50 Inact.
[5] = closed state, read-out: CAv1.2 IC50 Closed
[6] = inactivated state, read-out: CAv1.2 IC50 Inact.
[7] = CAv3.2, closed state, read-out: CAv3.2 IC50 Closed
[8] = CAv3.2, inactivated state, read-out: CAv3.2 IC50 Inact.

Compound	pIC50 (Human Cav 2.2 channels; [3])	pIC50 (Human Cav 2.2 channels; [4])	CAv2.2 IC50 Ratio closed/inact. (Human Cav 2.2 channels)	pIC50 (T-type calcium channel [1]; [7])	pIC50 (T-type calcium channel [1]; [8])	CAv3.2 IC50 Ratio closed/inact. (T-type calcium channel [1])	pIC50 (T-type calcium channel [2])	pIC50 (CAv1.2; [5])	pIC50 (CAv1.2; [6])	CAv1.2 IC50 Ratio closed/inact. (CAv1.2)
CC(C)S(=O)(=O)c1cc(C(F)(F)F)cnc1C(=O)N[C@H]1C[C@H](C(C)(C)S(=O)(=O)c2cc(F)cc(C(F)(F)F)c2)C1 [Compound 593]	5.00	6.80	62.5	≤ 5.00	4.98	1	≤ 5.00	≤ 5.00	5.10	1.3
CC(C)([C@H]1C[C@H](NC(=O)c2ccnc(C(F)(F)F)n2)C1)S(=O)(=O)c1cc(F)cc(C(F)(F)F)c1 [Compound 595]	5.44	6.68	17.3	≤ 5.00	5.01	1	≤ 5.00	≤ 5.00	≤ 5.00	–
CC(C)S(=O)(=O)c1cc(C(F)(F)F)cnc1C(=O)NCC1CC(C(C)(C)S(=O)(=O)c2cccc(C(F)(F)F)c2)C1 (stereo not drawn) [Compound 613]	5.19	6.46	18.6	5.04	5.26	1.7	≤ 5.00	5.10	5.23	1.4
CC(C)([C@H]1C[C@@H](NC(=O)c2cnc(C(F)(F)F)nc2)C1)S(=O)(=O)c1cccc(C(F)(F)F)c1 [Compound 579]	5.00	6.18	15.2	≤ 5.00	5.00	1	≤ 5.00	≤ 5.00	5.00	1
CC(C)([C@H]1C[C@@H](NS(=O)(=O)c2ccc(F)c(Cl)c2)C1)S(=O)(=O)c1cccc(C(F)(F)F)c1 [Compound 625]	5.00	5.96	9.2	5.43	5.51	1.2	5.43	≤ 5.00	5.19	1.6

Now from value to molecule, other results behind:

pIC50 (Human Cav 2.2 channels; [3])	pIC50 (Human Cav 2.2 channels; [4])	CAv2.2 IC50 Ratio closed/inact. (Human Cav 2.2 channels)	pIC50 (T-type calcium channel [1]; [7])	pIC50 (T-type calcium channel [1]; [8])	CAv3.2 IC50 Ratio closed/inact. (T-type calcium channel [1])	pIC50 (T-type calcium channel [2])	Compound	pIC50 (CAv1.2; [5])	pIC50 (CAv1.2; [6])	CAv1.2 IC50 Ratio closed/inact. (CAv1.2)
5.38	6.07	4.8	5.52	5.59	1.2	5.49	CC(C)([C@H]1C[C@H](Nc2ccnc(C(F)(F)F)n2)C1)S(=O)(=O)c1cccc(OC(F)(F)F)c1 [Compound 647]	5.18	5.97	6.1
5.39	6.28	7.8	5.78	–	–	5.58	CC(C)([C@H]1C[C@@H](CNC(=O)c2ccnc(C(F)(F)F)c2)C1)S(=O)(=O)c1cccc(C(F)(F)F)c1 [Compound 687]	≤ 5.00	5.62	4.2
5.13	6.37	17.3	5.47	5.47	1	5.53	CC(C)([C@H]1C[C@@H](NS(=O)(=O)c2ccc(C(F)(F)F)nc2)C1)S(=O)(=O)c1cccc(C(F)(F)F)c1 [Compound 629]	≤ 5.00	5.33	2.1
5.10	6.02	8.2	5.58	5.59	1	5.56	CC(C)([C@H]1C[C@H](NS(=O)(=O)c2ccc(OC(F)(F)F)cc2)C1)S(=O)(=O)c1cccc(C(F)(F)F)c1 [Compound 669]	≤ 5.00	5.48	3
